| Structure (SMILES) | melting point [°C] |
| --- | --- |
| COc1cc(OC)c2c(=O)[nH]c(-c3ccc(OCCO)c(OC)c3)nc2c1 | 246 to 248 |
| CCC(c1cc2c(-c3ccc(C(F)(F)F)n(C)c3=O)c(F)cc(Cl)c2o1)S(C)=O (stereo not given) | 125 to 127 |
| O=[N+]([O-])c1c(Br)nc2ccc(Cl)cc2c1C(F)(F)F | 120 |
| N#CCOc1c(Br)cc(Br)cc1C=O | 125 to 130 |
| Cc1cc(OCc2ccc(-c3ccccc3-c3nnn(C(c4ccccc4)(c4ccccc4)c4ccccc4)n3)cc2)c(C(=O)c2ccccc2)c(C)n1 | 84 to 91 |
| COC1=C(OC)C(=O)C(CCCCCCCCCCOC(C)=O)=C(C)C1=O | 38 |
| O=C(OC(=O)c1ccc([N+](=O)[O-])cc1S(=O)(=O)O)c1ccc([N+](=O)[O-])cc1S(=O)(=O)O | 110 to 116 |
| CS(=O)c1cnc2c(c1)CCC(c1ccc(Cl)c(Cl)c1)O2 (stereo not given) | 159 to 162 |
| Nc1nc2[nH]c(CCCc3cc(C(=O)O)cs3)cc2c(=O)[nH]1 | 181 to 182 |
| CS(=O)(=O)c1ccc2c(c1)C=C(C(=O)O)C(C(F)(F)F)O2 (stereo not given) | 208 to 212 |
| CC1CC(C)CN(S(=O)(=O)c2ccc(F)c(C(=O)O)c2)C1 (stereo not given) | 140 |
| COc1ccc(CCNCC(O)COc2ccc(-c3nc(-c4cccs4)c[nH]3)cc2)cc1OC (stereo not given) | 127 to 129 |
| CN(C)C(=O)Nc1cccc(Cl)c1 | 138 to 142 |
| COc1ccc(C2CCCN(C)C2)c2c1NC(=O)C2 (stereo not given) | 170 |
| CCCCCCCCC(SCCCCCC)C(=O)Nc1c(SC)cc(NC(C)=O)c2ncc(C)cc12 (stereo not given) | 128 to 131 |
| N#Cc1ccc(CCO)nc1 | 92 to 93 |
| C#CCN(C(=O)n1oc(C)c(Cl)c1=O)c1ccc(C)cc1 | 79 |
| CCCOc1cc(-c2cc(C=CC(=O)O)ccc2O)cc2c1C(C)(C)CCC2(C)C | 114 to 116 |
| Cc1ccc(S(=O)(=O)N2CCN(S(=O)(=O)c3ccc(C)cc3)CC3=CC=C(CN(S(=O)(=O)c4ccc(C)cc4)CC2)S3)cc1 | 265 to 268 |

| Structure (SMILES) | melting point [°C] |
| --- | --- |
| Cn1c(C=NNC(N)=S)cnc1[N+](=O)[O-] | 282 to 287 |
| Cn1c(C#N)c(Br)n(-c2ccc(Cl)cc2)c1=O | 185 |
| C/C(=C\c1ccc(OC(C)C)cc1Oc1ncc(C(F)(F)F)cc1Cl)C(=O)NS(=O)(=O)NCC1CCCO1 (stereo not given) | 125 to 126 |
| CCN(CC)CCOc1cc(C(=O)NC(=N)N)c(C)c2ccc(OC)cc12 | 135 |
| Cc1cc(-c2cnn3c(C(F)(F)F)cc(-c4cccc(C(F)(F)F)c4)nc23)cc(C)n1 | 236 |
| CCCCCCCNC(=O)Nc1ccccc1C(=O)NC1CCN(C(=O)Oc2ccccc2)CC1 | 142 to 144 |
| CC1=NCCn2cccc21 | 25 to 27 |
| Cc1ccc(-c2ccc(S(=O)(=O)Nc3cc(C)no3)cc2)cc1 | 194 to 198 |
| N=C(N)NCCOc1ccc2c(c1)NC(=O)C(CCC(=O)O)C2 (stereo not given) | 193 to 196 |
| Brc1ccc(N2CCCN(c3ccc(Br)cn3)CC2)nc1 | 178 to 181 |
| C=CCN(c1ncnc2c1ncn2CCCCCCCCC(=O)O)C1CCCCC1 | 100 to 102 |
| COc1nc(C(F)(F)F)cc(=O)n1-c1cc(C(=O)O)c(Cl)cc1F | 205 to 210 |
| COc1ccc(S(=O)(=O)N2C(=O)C(N)(c3ccccc3Cl)c3cc(Cl)ccc32)c(N)c1 (stereo not given) | 160 to 166 |
| CN(C)CCc1ccc(O)c2c1=NS(=O)(=O)N=2 | 202 to 205 |
| Nc1c(N=O)c(=O)n(CC2CCC2)c(=O)n1CC1CCC1 | 251 to 252 |
| O=c1[nH]c(CCl)c(I)c(=O)[nH]1 | 225 |
| C#CCn1c2ccccc2c2sccc(=O)c21 | 144 |
| Cc1ccc(-c2noc(-c3ccc4c(c3)C(C)(C)CCC4(C)C)n2)cc1 | 106 to 109 |
| CCCCN(C(=O)CCCCC(=O)N(CCCC)C1CC(C)(C)NC(C)(C)C1)C1CC(C)(C)NC(C)(C)C1 | 134 to 144 |

| Structure (SMILES) | melting point [°C] |
| --- | --- |
| CC(C#N)S[C@H](C)[C@](O)(Cn1cncn1)c1ccc(F)cc1F (stereo not given in full) | 66 to 68 |
| CC(C)(C)NNC(=O)c1cccc(Cl)c1 | 116 to 118 |
| COC(=O)c1ccc(OC(F)(F)F)c(O)c1 | 95 to 97 |
| CC(c1ccc(-c2ccc(F)cc2)cc1)N1CCN(CCO)CC1 (stereo not given) | 120 to 123 |
| COc1ccc(-c2c(Cl)c(Cn3cnc4ccccc43)nc3sc4c(c23)CCSC4)cc1 | 201 to 203 |
| Clc1cccc(Nc2ncnc3[nH]nc(NCc4ccc5c(c4)OCO5)c23)c1 | 220 to 222 |
| NC(Cc1c[nH]c2c(Cl)cccc12)C(=O)O (stereo not given) | 236 to 239 |
| O=CCCCCCCCCCCC(=O)O | 53 to 54 |
| N#Cc1cc(-c2ccoc2)c2ccc(COc3cc(F)cc(-c4ccc(Cl)cc4Cl)c3)cc2n1 | 188 to 190 |
| COc1ccc(C2CCN(C(=O)C(=O)NO)CC2)cc1C=C1CCCCCC1 | 135 to 136 |
| CC(C)(C)c1cc(CCc2cc(F)cc(F)c2NC(=O)NC(C)(C)c2ccc(Cl)c(Cl)c2)cc(C(C)(C)C)c1O | 224 to 226 |
| CCOC(=O)C1Cc2cc(Cl)ccc2NC1=O (stereo not given) | 173 to 175 |
| CC(C)(C)OC(=O)N[C@@H](CC1CCCCC1)[C@@H]1C[C@@H](C2(O)CCCCC2)C(=O)O1 | 133 to 134 |
| CC(=O)Nc1nc2cc(-c3ccc(C=C4SC(=O)NC4=O)cn3)cc(C34CC5CC(CC(C5)C3)C4)c2o1 | > 360 |
| COC(=O)CCCC#Cc1nc(C(F)(F)F)ccc1N | 49 |
| CCOc1ccc2[nH]c(S(=O)Cc3cccn4ccnc34)nc2c1 (stereo not given) | 186 to 188 |
| COc1ccc2c(c1)Cc1cc(C(C)C(=O)O)ccc1-2 (stereo not given) | 179 to 181 |
| CC(C)(C)[Si](C)(C)Oc1ccc(NC(=O)CBr)cc1 | 112 to 113 |
| CCCCC12CCC3=C(CCc4cc(OC)ccc43)C1CCC2O (stereo not given) | 90 to 100 |

Next, values leading:

| melting point [°C] | Structure (SMILES) |
| --- | --- |
| 154 to 156 | O=c1c2cnc(-c3ccccc3)nc2sn1Cc1ccccn1 |
| 73 to 74 | CCN(CC)CCOc1ccc2c(c1)c(C(=O)OCc1ccccc1)c(C)n2C |
| 144 to 146 | CCN1C(=O)C(C)(C)C(=O)N(C)c2cc(CN(CCn3ccc4sccc4c3=O)Cc3cc(C)nn3C)ccc21 |
| 150 | COP(=O)(c1ccccc1)c1ccc2c(c1)C(NC(=NC#N)Nc1ccc(Cl)cc1)C(O)C(C)(C)O2 (stereo not given) |
| 260 | C#CCN(c1ccc(C(=O)NCc2cccc(C#N)c2)cc1)C1CCc2cc3nc(C)[nH]c(=O)c3cc21 (racemic) |
| 136 to 137 | CON=C(c1ccccc1COc1cc(C)ccc1C)C1OCCO1 |
| 88 | CC(C#N)Oc1cccc(CN2C(=O)c3cccc(NC(=O)c4ccc(Cl)s4)c3C2=O)c1 (stereo not given) |
| 87 to 92 | COCC(=O)[C@H](Cc1ccccc1)NC(=O)[C@H](CC(C)C)NC(=O)OCc1ccccc1 |
| 93 to 95 | Brc1ccc(Cn2cnc3ccccc32)cc1 |
| 230 | COc1ccccc1[C@@]1(O)[C@@H]2CNC[C@@H]2C(c2ccccc2)(c2ccccc2)C[C@@H]1O |
| 61 | COC(=O)CCc1ccc(CNC(=O)C2Cc3ccccc3N2S(=O)(=O)c2ccc(-c3cccc(C(F)(F)F)c3)cc2)cc1 (stereo not given) |
| 208 | O=C1c2ccccc2C(O)N1c1ccc2ncccc2n1 (stereo not given) |
| 177 to 190 | Cc1cccc(C)c1C(=O)Nc1ccc(OCCN2CCOCC2)cc1 |
| 30 to 35 | CC[C@H](CO)Nc1nc(Nc2ccccn2)c2ncn(C(C)C)c2n1 |
| 109 to 110 | CC1(C)C=Cc2c(ccc3c2C(=O)C(=O)C=C3)O1 |
| 147 to 165 | O=C(Nc1ccc(C(=O)N2Cc3cccnc3Nc3ccccc32)c(Cl)c1)c1ccccc1-c1ccccc1 |
| 70 | O=C(CNC(=O)C(Cc1ccccc1)C(=O)NOCc1ccccc1)OCc1ccccc1 (stereo not given) |
| 116 to 117 | ONCC1(c2ccc(OCc3ccc4ccccc4n3)cc2)CCCC1 |
| 104 | COCCc1nc2c(N)nc3ccccc3c2n1CCOCCCc1ccccc1 |

| melting point [°C] | Structure (SMILES) |
| --- | --- |
| 58 to 61 | CC(C)Oc1cccc(C(=O)N2CCN(C(=O)CNC3CCN(Cc4ccccc4)CC3)C(c3ccc(Cl)c(Cl)c3)C2)c1 (racemic) |
| 183 to 184 | O=C(O)Cc1cccc(Oc2cccc(-c3nnc(Nc4ccc(Cl)c(Cl)c4)s3)c2)c1 |
| 116 to 120 | CC(C)(C)C(c1csc2ccccc12)[C@@H](OC(N)=O)c1nc(-c2ccccc2)c[nH]1 (stereo not given in full) |
| 70 to 75 | CC1(C)OCc2c1nc1ccccc1c2NCCCN1CCCC1 |
| 74 to 76 | CCOC(=O)CCNC(=O)c1ccc2c(CC)nn(C3CCCC3)c2c1 |
| 212 to 213 | COc1ccc(C(=O)Nc2ccccc2)cc1NS(=O)(=O)c1cccc2ccccc12 |
| 89 to 90 | CCOC(=O)COc1ccc2cnn(C[C@H](C)NC(=O)OCc3ccccc3)c2c1Br |
| > 300 | CC(=O)N(CC=C=CC=c1c(C)c2c(n(-c3ccccc3)c1=O)=NN(c1ccccc1)C2=O)c1ccccc1 |
| 135 to 137 | CC(CCC(=O)NO)NC(=O)C(=O)c1cn2c3c(cccc13)CCC2 (stereo not given) |
| 123 to 124 | CCOC(=O)c1ccc2sc(C=Cc3cccnc3)c(C)c2c1 |
| 226 to 228 | Cn1ncc(C(=O)N2CCCC2)c1C(=O)Nc1ccn2nc(-c3cccnc3)nc2c1 |
| 137 | CC(=O)N(CCOc1ccc(CC2SC(=O)NC2=O)cc1)c1ncccn1 (stereo not given) |
| 148 to 149 | CCN1C(=O)c2cccnc2Sc2ccccc21 |
| 116 to 118 | COC(=O)c1ccc(Cc2cn(C)c3ccc(C=O)cc23)c(OC)c1 |
| 174 to 175 | COc1ccc(-n2c(=O)cc(OC(C)=O)c3ccccc32)cc1 |
| 92 to 94 | COC(=O)CCc1cccc(OCCC2Oc3ccccc3N(Cc3cccc(Cl)c3)C2=O)c1 (stereo not given) |
| 185 to 188 | CCOC(=O)CC(O)(CC)c1cc2n(c(=O)c1C)Cc1cc3ccccc3nc1-2 (stereo not given) |
| 253 to 254 | O=C(C=Cc1ccc(-c2ccc(Cl)cc2)cc1)NC(Cc1ccc(OCc2ccccc2)cc1)C(=O)O (stereo not given) |
| 173 to 175 | C=CCNC(=O)[C@H]1N(C(=O)[C@@H](O)[C@H](Cc2ccccc2)NC(=O)c2cccc(O)c2C)CSC1(C)C |

From a melting point compilation (Tetko et al.; mined from patent text by program, amines drawn as free bases though some values may be those of a salt)
